Assays:
[1] = Steady‐state plasma pharmacokinetics; assay type: in vivo; settings: human, oral, CC‐223 + CC‐292 (arm C dose level 2, day 15); for clearance: read-out: apparent plasma clearance (converted); for Vd: read-out: mean apparent volume of distribution; for Tmax: read-out: median Tmax; for half-life: read-out: terminal half‐life (converted)
Method: (§1) AEs were assessed according to the National Cancer Institute Common Terminology Criteria for AEs, version 4.03, up to 28 days after the last treatment. Blood samples for PK analysis were collected on days 15 to 28, predose, and at 1.5 and 3 h post‐dose on days 1 and 15 of cycle 1 for all dose cohorts. Additional blood samples were collected on day 15 from patients in dose level 2 of arm C to examine CC‐223 and CC‐292 steady‐state PK. Pharmacodynamic biomarkers of each novel agent were explored at baseline and cycle 1, day 1 (pre‐dose, and at 1.5 and 3 h) and cycle 1, day 15 (pre‐dose, and at 1.5 and 3 h), including cereblon modulation substrates in B and T cells in patients treated with CC‐122 and mTOR signaling pathway biomarkers (e.g., p4EBP1 and pAKT) in patients treated with CC‐223. Tumor assessments were performed at screening and at the end of even‐numbered cycles through cycle 6, then every three cycles through cycle 12, and every 6 months thereafter. Responses were assessed by the investigator per International Working Group 2007 criteria.
(§2) Safety analyses were performed on all patients who received ≥1 dose of study treatment (safety population). The PK population comprised all patients who took ≥1 dose of study treatment and had ≥1 measured drug concentration. […] The biomarker‐evaluable population comprised all patients who took ≥1 dose of study treatment and had ≥1 pharmacodynamic assessment. Safety and efficacy analyses were based on the safety population except where noted (PK and biomarkers). PK parameters were calculated using actual times relative to the most recent administration. The median duration of response (DOR) and median PFS were calculated per the Kaplan‐Meier method.
FIGURE S3 Summary of pharmacokinetic parameters and mean plasma concentration-time profiles of (A) CC-223 and (B) CC-292. Summary of pharmacokinetic parameters and mean plasma concentration-time profiles of (A) CC-223 and (B) CC-292. […] Data are geometric means (CV%) except for Tmax, for which medians (min, max) are presented.

patients with R/R DLBCL = test: Treatment duration, modification, and exposure; assay type: in vivo; settings: for patients with dose reductions of the drug: all patients who received the drug
Method: CC‐122 hydrochloride, referred to here as CC‐122, as an active pharmaceutical ingredient in capsule (AIC) formulation, was administered orally once daily (QD). An alternate intermittent schedule of CC‐122 QD for five of every seven consecutive days (5/7), which improved tolerability and reduced the frequency and severity of neutropenia in a study of CC‐122 monotherapy in DLBCL, was also explored. CC‐292 was administered orally twice daily (BID) and CC‐223 was administered orally QD. Rituximab was administered on day 8 of cycle 1, day 1 of cycles 2–6, and day 1 of every third cycle thereafter. Patients in arm A received CC‐122 and CC‐223 with or without rituximab (starting at CC‐122 2 mg QD and CC‐223 20 mg QD), patients in arm B received CC‐122 plus CC‐292 with or without rituximab (starting at CC‐122 2 mg QD and CC‐292 500 mg BID), patients in arm C were treated with CC‐223 and CC‐292 (starting at CC‐223 20 mg QD and CC‐292 500 mg BID), and those in arm D received CC‐122 plus rituximab (starting at CC‐122 2 mg QD). In arm D, a CC‐122 3 mg formulated capsule was introduced with the same strength as CC‐122 3 mg AIC. Each dose level was cleared before the next was started. If unacceptable toxicity occurred at the initial dose level, dose reductions for CC‐122 (1.5 mg QD and 1 mg QD) and CC‐223 (15 mg QD) were allowed; no starting dose reductions for CC‐292 were planned. For arm A, the Safety Review Committee (SRC) determined which of the two drugs in the doublet to reduce. For arms B and D, the CC‐122 dose was reduced and for arm C, the CC‐223 dose was reduced. Assignment of patients to study arms was at the discretion of the investigator and based on slot availability per the study design.
Patients who experienced dose‐limiting toxicity (DLT) after receiving ≥1 dose of study treatment or those who received ≥80% of planned doses of CC‐122, CC‐223, CC‐292, and rituximab during cycle 1 without experiencing a DLT were considered DLT‐evaluable. If zero out of ≥3 or ≤1 out of six evaluable patients in a cohort experienced a DLT during cycle 1 in parallel dose cohorts, then dose escalation could occur. DLTs are defined in the Supplementary Materials; individual investigators performed response assessments and determined DLTs. The NTD was defined as the dose level at which ≥2 of six evaluable patients in a cohort experienced a DLT during cycle 1. […] During cycle 1, any adverse event (AE) that led to dose reduction was considered a DLT. Patients could resume CC‐122 at a reduced dose only if they recovered to grade ≤1 within 14 days of dose interruption; two dose reductions were allowed before the patient was withdrawn from the study. Dose reductions were permitted for CC‐122, CC‐223, and CC‐292; no dose reductions were allowed for rituximab, but treatment could be discontinued at the discretion of the investigator. […] For arms A, B, and D, CC‐122 dosing was modified to the intermittent 5/7‐day schedule based on SRC review and escalated until the MTD/RP2D was established. Treatment was given until disease progression, unacceptable toxicity, or patient/physician decision to withdraw consent.
^aTreatment duration defined as date of last derived dose – date of first dose + 1.
^bDefined as the ratio of actual dose received to planned dose over the treatment period.

p4EBP1 = test: mTOR signaling pathway biomarker p4EBP1 in blood; assay type: in vivo, human
Method: as §1
as §2, with “Safety and efficacy analyses were based on the safety population except where noted (PK and biomarkers).” left out
(§3) Per cent change from baseline in Aiolos in CD3+ T cells (A) and CD19+ B cells (B) and in p4EBP1 (C) and pAKT (D) at 3 h post‐dose on day 1 of cycle 1 (biomarker‐evaluable population). The change in Aiolos expression in CD3+ T cells and CD19+ B cells was calculated within each avadomide‐ and CC‐223‐containing arm. *p ≤ 0.05 versus baseline; **p ≤ 0.01 versus baseline; ***p ≤ 0.001 versus baseline; DL, dose level; MEFL, molecules of equivalent fluorescence label; NS, not significant

pAKT = test: mTOR signaling pathway biomarker pAKT in blood; assay type: in vivo, human
Method: as §1
as §2, with “Safety and efficacy analyses were based on the safety population except where noted (PK and biomarkers).” left out
as §3

R/R DLBCL = settings: cited from earlier work
[2] = Overall (all arms with the drug)
[3] = arm A (with CC‐122), 20 mg of CC‐223, 3 h post‐dose vs baseline
[4] = arm C (with CC‐292), 20 mg of CC‐223, 3 h post‐dose
[5] = arm C (with CC‐292), CC‐223 15 mg

| clearance [1] | Vd [1] | Tmax [1] | half-life [1] | ≥1 dose interruption (patients with R/R DLBCL; Arm C (CC-292 + CC-223)) | ≥1 dose interruption: Other (patients with R/R DLBCL; Arm C (CC-292 + CC-223)) | ≥1 dose interruption: Per protocol (patients with R/R DLBCL; Arm C (CC-292 + CC-223)) | ≥1 dose reduction (patients with R/R DLBCL; Arm C (CC-292 + CC-223)) | ≥1 dose reduction: Other (patients with R/R DLBCL; Arm C (CC-292 + CC-223)) | ≥1 dose reduction: Per protocol (patients with R/R DLBCL; Arm C (CC-292 + CC-223)) | ≥1 dose interruption (patients with R/R DLBCL; [2]) | ≥1 dose interruption: Other (patients with R/R DLBCL; [2]) | ≥1 dose interruption: Per protocol (patients with R/R DLBCL; [2]) | ≥1 dose reduction (patients with R/R DLBCL; [2]) | ≥1 dose reduction: Other (patients with R/R DLBCL; [2]) | ≥1 dose reduction: Per protocol (patients with R/R DLBCL; [2]) | Compound | ≥1 dose interruption: Adverse event (patients with R/R DLBCL; Arm C (CC-292 + CC-223)) | ≥1 dose reduction: Adverse event (patients with R/R DLBCL; Arm C (CC-292 + CC-223)) | ≥1 dose interruption: Adverse event (patients with R/R DLBCL; [2]) | ≥1 dose reduction: Adverse event (patients with R/R DLBCL; [2]) | other results |
| --- | --- | --- | --- | --- | --- | --- | --- | --- | --- | --- | --- | --- | --- | --- | --- | --- | --- | --- | --- | --- | --- |
| ~405 mL/min | 127 L | 1.5 h | ~3.6 h | 9 (64.3) n (%) | 3 (21.4) n (%) | 1 (7.1) n (%) | 1 (7.1) n (%) | 0 n (%) | 0 n (%) | 34 (75.6) n (%) | 13 (28.9) n (%) | 2 (4.4) n (%) | 11 (24.4) n (%) | 2 (4.4) n (%) | 0 n (%) | CO[C@H]1CC[C@H](N2C(=O)CNc3ncc(-c4ccc(C(C)(C)O)nc4)nc32)CC1 [CC‐223] | 8 (57.1) n (%) | 1 (7.1) n (%) | 31 (68.9) n (%) | 8 (17.8) n (%) | ≥1 dose interruption (patients with R/R DLBCL; Arm A (Avadomide + CC-223 ± R)): 25 (80.6) n (%); ≥1 dose interruption: Adverse event (patients with R/R DLBCL; Arm A (Avadomide + CC-223 ± R)): 23 (74.2) n (%); ≥1 dose interruption: Other (patients with R/R DLBCL; Arm A (Avadomide + CC-223 ± R)): 10 (32.3) n (%); ≥1 dose interruption: Per protocol (patients with R/R DLBCL; Arm A (Avadomide + CC-223 ± R)): 1 (3.2) n (%); ≥1 dose reduction (patients with R/R DLBCL; Arm A (Avadomide + CC-223 ± R)): 10 (32.3) n (%); ≥1 dose reduction: Adverse event (patients with R/R DLBCL; Arm A (Avadomide + CC-223 ± R)): 7 (22.6) n (%); ≥1 dose reduction: Other (patients with R/R DLBCL; Arm A (Avadomide + CC-223 ± R)): 2 (6.5) n (%); ≥1 dose reduction: Per protocol (patients with R/R DLBCL; Arm A (Avadomide + CC-223 ± R)): 0 n (%); patients with dose reductions of the drug (patients with R/R DLBCL): 24.4%; median reduction in p4EBP1 levels (p4EBP1; [3]): approximately 30%; increase of p4EBP1 levels from baseline (p4EBP1; [4]): approximately 8%; reduction of p4EBP1 (p4EBP1; [5]): approximately 30%; median reduction in pAKT levels (pAKT; [3]): ~70%; median reduction of pAKT levels (pAKT; [4]): approximately 50%; reduction of pAKT levels (pAKT; [5]): approximately 50% |
| ~1170 mL/min | 334 L | 1.5 h | ~3.3 h | 6 (42.9) n (%) | 1 (7.1) n (%) | 1 (7.1) n (%) | 4 (28.6) n (%) | 1 (7.1) n (%) | 1 (7.1) n (%) | 20 (48.8) n (%) | 9 (22.0) n (%) | 2 (4.9) n (%) | 16 (39.0) n (%) | 9 (22.0) n (%) | 2 (4.9) n (%) | C=CC(=O)Nc1cccc(Nc2nc(Nc3ccc(OCCOC)cc3)ncc2F)c1 [CC‐292] | 3 (21.4) n (%) | 3 (21.4) n (%) | 8 (19.5) n (%) | 8 (19.5) n (%) | ≥1 dose interruption (patients with R/R DLBCL; Arm B (Avadomide + CC-292 ± R)): 14 (51.9) n (%); ≥1 dose interruption: Adverse event (patients with R/R DLBCL; Arm B (Avadomide + CC-292 ± R)): 5 (18.5) n (%); ≥1 dose interruption: Other (patients with R/R DLBCL; Arm B (Avadomide + CC-292 ± R)): 8 (29.6) n (%); ≥1 dose interruption: Per protocol (patients with R/R DLBCL; Arm B (Avadomide + CC-292 ± R)): 1 (3.7) n (%); ≥1 dose reduction (patients with R/R DLBCL; Arm B (Avadomide + CC-292 ± R)): 12 (44.4) n (%); ≥1 dose reduction: Adverse event (patients with R/R DLBCL; Arm B (Avadomide + CC-292 ± R)): 5 (18.5) n (%); ≥1 dose reduction: Other (patients with R/R DLBCL; Arm B (Avadomide + CC-292 ± R)): 8 (29.6) n (%); ≥1 dose reduction: Per protocol (patients with R/R DLBCL; Arm B (Avadomide + CC-292 ± R)): 1 (3.7) n (%); patients with dose reductions of the drug (patients with R/R DLBCL): 39.0% |
| – | – | – | – | – | – | – | – | – | – | – | – | – | – | – | – | O=C(/C=C\n1cnc(-c2cc(C(F)(F)F)cc(C(F)(F)F)c2)n1)NNc1cnccn1 [selinexor, reference compound] | – | – | – | – | CR rates (R/R DLBCL; monotherapy, third‐line setting): 12% |
| – | – | – | – | – | – | – | – | – | – | – | – | – | – | – | – | axicabtagene ciloleucel | – | – | – | – | 24‐month PFS (R/R DLBCL; patients with a complete response): 72% |

Reference: PMC9176062, “Phase Ib study of combinations of avadomide (CC‐122), CC‐223, CC‐292, and rituximab in patients with relapsed/refractory diffuse large B‐cell lymphoma” (EJHaem, 2022)
